Experimental data: the supplement of paper PMC10307832

Legend:
Assay in all cases: relative viability (nuclei count vs DMSO), 5 days (fraction); higher = more cells survive
Obatoclax + Vorinostat = compound: COC1=CC(c2cc3ccccc3[nH]2)=N/C1=C\c1[nH]c(C)cc1C [Obatoclax] + O=C(CCCCCCC(=O)Nc1ccccc1)NO [Vorinostat] (partner 1 µM)
In short: (§1)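 After 5 days of treatment, lung cancer cells in 1536-well plates were fixed and stained in a single step (final 0.05% Triton X-100, 1% formaldehyde, 1 ug/ml Hoechst) and their nuclei counted on 4× images. Treatment had been applied by pin tool the day after seeding as one drug alone or as a fixed anchor-drug dose with five library-drug doses (not always all listed) in √10 steps. Relative viability is the nuclei count of treated wells divided by that of vehicle wells, and values are medians of duplicate plates.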

Obatoclax + Pictilisib = compound: COC1=CC(c2cc3ccccc3[nH]2)=N/C1=C\c1[nH]c(C)cc1C [Obatoclax] + CS(=O)(=O)N1CCN(Cc2cc3nc(-c4cccc5[nH]ncc45)nc(N4CCOCC4)c3s2)CC1 [Pictilisib] (partner 1 µM)
In short: as §1

[1] = compound: CC1=CC(=NN1)NC2=CC(=NC(=N2)/C=C/C3=CC=CC=C3)N4CCN(CC4)C + Cc1nc(NC(=O)N2CCC[C@H]2C(N)=O)sc1-c1ccnc(C(C)(C)C(F)(F)F)c1 [Alpelisib] (partner 2 µM)
In short: as §1

Obatoclax + Decitabine = compound: COC1=CC(c2cc3ccccc3[nH]2)=N/C1=C\c1[nH]c(C)cc1C [Obatoclax] + Nc1ncn([C@H]2C[C@H](O)[C@@H](CO)O2)c(=O)n1 [Decitabine] (partner 2 µM)
In short: as §1

Row | Cell Line | relative viability (Obatoclax + Vorinostat; first compound 0.01 µM) | relative viability (Obatoclax + Vorinostat; first compound 0.03162 µM) | relative viability (Obatoclax + Vorinostat; first compound 0.1 µM) | relative viability (Obatoclax + Vorinostat; first compound 0.3162 µM) | relative viability (Obatoclax + Vorinostat; first compound 1 µM) | relative viability (Obatoclax + Pictilisib; first compound 0.01 µM) | relative viability (Obatoclax + Pictilisib; first compound 0.03162 µM) | relative viability (Obatoclax + Pictilisib; first compound 0.1 µM) | relative viability (Obatoclax + Pictilisib; first compound 0.3162 µM) | relative viability (Obatoclax + Pictilisib; first compound 1 µM) | relative viability ([1]; first compound 0.08 µM) | relative viability ([1]; first compound 0.253 µM) | relative viability ([1]; first compound 0.8 µM) | relative viability ([1]; first compound 2.53 µM) | relative viability ([1]; first compound 8 µM) | relative viability (Obatoclax + Decitabine; first compound 0.01 µM) | relative viability (Obatoclax + Decitabine; first compound 0.03162 µM) | relative viability (Obatoclax + Decitabine; first compound 0.1 µM) | relative viability (Obatoclax + Decitabine; first compound 0.3162 µM) | relative viability (Obatoclax + Decitabine; first compound 1 µM)
1 | SK-LU-1 | 0.833 | 0.827 | 0.723 | 0.671 | 0.441 | 0.616 | 0.559 | 0.46 | 0.364 | 0.256 | 1.05 | 0.972 | 0.636 | 0.223 | 0.113 | 0.682 | 0.567 | 0.454 | 0.478 | 0.363
2 | SK-MES-1 | 1.06 | 1.11 | 0.905 | 0.907 | 0.301 | 0.393 | 0.379 | 0.392 | 0.402 | 0.268 | 0.882 | 0.853 | 0.958 | 0.623 | 0.131 | 0.366 | 0.374 | 0.468 | 0.233 | 0.202
3 | SW 1573 | 0.791 | 1.04 | 0.792 | 0.429 | 0.169 | 0.466 | 0.539 | 0.506 | 0.44 | 0.519 | 0.886 | 1.07 | 0.785 | 0.499 | 0.124 | 0.432 | 0.434 | 0.437 | 0.139 | 0.194
4 | UMC-11 | 0.39 | 0.439 | 0.375 | 0.407 | 0.288 | 0.849 | 0.819 | 0.806 | 0.645 | 0.298 | 0.948 | 0.963 | 0.404 | 0.13 | 0.103 | 0.608 | 0.536 | 0.475 | 0.573 | 0.41
